Results taken from patent US20260176285A1, “SALT OF DIOXANE QUINOLINE COMPOUND, CRYSTAL FORM THEREOF, PREPARATION METHODS THEREFOR AND USES THEREOF” (Beijing Scitech-MQ Pharmaceuticals Limited, priority 2022, published 2026).

Legend:
[1] = Dynamic solubility in water, SGF, FaSSIF and FeSSIF; assay type: physicochemical; set-up: S (dynamic solubility): unit not given here; conditions: listed as Phosphate salt crystal form A-V; for S (dynamic solubility): 37° C., feed 10 mg/mL
Method in brief: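 Free form and salt crystal forms tested over time in water, SGF (pH 1.8), FaSSIF (pH 6.5) and FeSSIF (pH 5.0), simulated fluids made with SIF powder. At each time point samples were centrifuged, passed through 0.45 μm PTFE, and filtrate concentration (HPLC) and pH measured.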

[2] = Hygroscopicity by dynamic moisture sorption (DVS); assay type: physicochemical; conditions: DVS, listed as Phosphate salt crystal form A-V
Method in brief: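 Mass change of salt and free-form crystal samples recorded at 25° C over a 0% RH-95% RH-0% RH cycle. Steps were 10% RH (last step 5%) with a dm/dt equilibrium criterion of 0.002%/min.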

[3] = Solid-state stability evaluation (XRPD, HPLC); assay type: physicochemical; conditions: listed as Phosphate salt crystal form A-V
Protocol: The following 6 test samples were placed under 25° C./60% RH and 40° C./75% RH conditions for 1 week, and then the physical and chemical stability of the samples was tested by XRPD and HPLC.
At the same time, after the p-toluenesulfonate salt crystal form A-II and crystal form B-III solids were placed at 80° C. for 24 hours, the physical and chemical stability of the samples were tested by XRPD and HPLC.

[4] = test system: human lung cancer cells EBC-1; test: Efficacy in nude mouse tumor-bearing model of human lung cancer cells EBC-1; assay type: in vivo, Balb/c nude mouse
Method in brief: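 Female BALB/c nude mice bearing subcutaneous EBC-1 xenografts (5×10^6 cells; 150-200 mm^3 at start), 6/group, dosed orally once daily for about 3 weeks at 15 and 7.5 mg/kg (free-base equivalent) in 0.1% CMC-Na. Tumors measured twice weekly; T/C (%) from relative tumor volume versus vehicle.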

For `O=C(Nc1ccc(F)cc1)C1(C(=O)Nc2ccc(Oc3ccnc4cc(OCCCN5CCOCC5)c5c(c34)OCCO5)c(F)c2)CC1` [Example 5, N-(3-fluoro-4-((5-(3-morpholinopropoxy)-2,3-dihydro-[1,4]dioxano[2,3-f]quinolin-10-yl)oxy)phenyl)-N-(4-fluorophenyl)cyclopropane-1,1-dicarboxamide], the “S (dynamic solubility)” value ([1]; FaSSIF, 1 hour) was 0.028, the “pH of the filtrate” value ([1]; FaSSIF, 1 hour) was 5.8 and the “S (dynamic solubility)” value ([1]; FaSSIF, 2 hours) was 0.030. For the same compound, the “pH of the filtrate” value ([1]; FaSSIF, 2 hours) was 5.8, the “S (dynamic solubility)” value ([1]; FaSSIF, 4 hours) was 0.024 and the “pH of the filtrate” value ([1]; FaSSIF, 4 hours) was 5.8. The “S (dynamic solubility)” value ([1]; FaSSIF, 24 hours) was 0.080, the “pH of the filtrate” value ([1]; FaSSIF, 24 hours) was 5.3 and the “S (dynamic solubility)” value ([1]; FeSSIF, 1 hour) was 1.5. For the same compound, the “pH of the filtrate” value ([1]; FeSSIF, 1 hour) was 4.9, the “S (dynamic solubility)” value ([1]; FeSSIF, 2 hours) was 1.4 and the “pH of the filtrate” value ([1]; FeSSIF, 2 hours) was 5.0. The “S (dynamic solubility)” value ([1]; FeSSIF, 4 hours) was 1.3, the “pH of the filtrate” value ([1]; FeSSIF, 4 hours) was 5.0 and the “S (dynamic solubility)” value ([1]; FeSSIF, 24 hours) was 0.20. For the same compound, the “pH of the filtrate” value ([1]; FeSSIF, 24 hours) was 5.0, the “S (dynamic solubility)” value ([1]; H2O, 1 hour) was 2.5 and the “pH of the filtrate” value ([1]; H2O, 1 hour) was 4.5. For the same compound, the “S (dynamic solubility)” value ([1]; H2O, 2 hours) was 2.6, the “pH of the filtrate” value ([1]; H2O, 2 hours) was 4.5 and the “S (dynamic solubility)” value ([1]; H2O, 4 hours) was 2.4. For the same compound, the “pH of the filtrate” value ([1]; H2O, 4 hours) was 4.5, the “S (dynamic solubility)” value ([1]; H2O, 24 hours) was 2.5 and the “pH of the filtrate” value ([1]; H2O, 24 hours) was 4.4. The “S (dynamic solubility)” value ([1]; SGF, 1 hour) was 6.9, the “pH of the filtrate” value ([1]; SGF, 1 hour) was 2.7 and the “S (dynamic solubility)” value ([1]; SGF, 2 hours) was “completely dissolved”. For the same compound, the “S (dynamic solubility)” value ([1]; SGF, 4 hours) was “completely dissolved”, the “S (dynamic solubility)” value ([1]; SGF, 24 hours) was 6.4 and the “pH of the filtrate” value ([1]; SGF, 24 hours) was 2.7. The “Moisture adsorption (25° C./80% RH)” value ([2]; 25° C./80% RH) was 6.43%, the Hygroscopicity ([2]; 25° C.) was “Hygroscopic” and the Purity ([3]; 25° C./60% RH, 1 week) was 99.13 area %. For the same compound, the Purity ([3]; 40° C./75% RH, 1 week) was 99.13 area %, the Purity ([3]; Starting) was 99.23 area % and the “T/C (relative tumor proliferation rate)” value ([4]; 7.5 mg/kg oral once a day, day 3) was 97.1%. For the same compound, the “T/C (relative tumor proliferation rate)” value ([4]; 7.5 mg/kg oral once a day, day 7) was 80.6%, the “T/C (relative tumor proliferation rate)” value ([4]; 7.5 mg/kg oral once a day, day 10) was 76.3% and the “T/C (relative tumor proliferation rate)” value ([4]; 7.5 mg/kg oral once a day, day 14) was 68.2%. For the same compound, the “T/C (relative tumor proliferation rate)” value ([4]; 7.5 mg/kg oral once a day, day 18) was 66.5%, the “T/C (relative tumor proliferation rate)” value ([4]; 7.5 mg/kg oral once a day, day 21) was 58.8% and the “T/C (relative tumor proliferation rate)” value ([4]; 15 mg/kg oral once a day, day 3) was 76.0%. The “T/C (relative tumor proliferation rate)” value ([4]; 15 mg/kg oral once a day, day 7) was 49.9%, the “T/C (relative tumor proliferation rate)” value ([4]; 15 mg/kg oral once a day, day 10) was 43.8% and the “T/C (relative tumor proliferation rate)” value ([4]; 15 mg/kg oral once a day, day 14) was 37.1%. The “T/C (relative tumor proliferation rate)” value ([4]; 15 mg/kg oral once a day, day 18) was 33.0% and the “T/C (relative tumor proliferation rate)” value ([4]; 15 mg/kg oral once a day, day 21) was 26.2%.
